Like-named read-outs stand apart in the source and are kept apart here.
System: Pyricularia oryzae
Format: in vivo
Details: individual active compound, protective spray, inoculated next day, rated after 6 days

CC1CCN(c2c(-c3c(F)cccc3Cl)c(Cl)nc3ncnn23)CC1 [A]
Efficacy in % of the untreated control (1 ppm in the spray liquor): 0%
Efficacy in % of the untreated control (4 ppm in the spray liquor): 11%

CC(Nc1c(-c2c(F)cc(F)cc2F)c(Cl)nc2ncnn12)C(F)(F)F (centres unmarked) [B]
Efficacy in % of the untreated control (1 ppm in the spray liquor): 11%
Efficacy in % of the untreated control (4 ppm in the spray liquor): 33%

CC1CCN(c2c(-c3c(F)cc(F)cc3F)c(Cl)nc3ncnn23)CC1 [I, 5-chloro-7-(4-methylpiperidin-1-yl)-6-(2,4,6-trifluorophenyl)-[1,2,4]triazolo[1,5-a]pyrimidine]
Efficacy in % of the untreated control (1 ppm in the spray liquor): 11%
Efficacy in % of the untreated control (4 ppm in the spray liquor): 33%

CCCC1COC(Cn2cncn2)(c2ccc(Cl)cc2Cl)O1 (centres unmarked) [II, 1-[2-(2,4-dichlorophenyl)-4-propyl-[1,3]dioxolan-2-ylmethyl]-1H-[1,2,4]triazole]
Efficacy in % of the untreated control (1 ppm in the spray liquor): 0%
Efficacy in % of the untreated control (4 ppm in the spray liquor): 0%

Source: patent publication US20070082915A1 (priority 2003, published 2007)
